Experiments:
healthy adult examinees = assay: HRIPT (Human repeated insult patch tests), skin accumulated stimulus; assay type: in vivo; set-up: key to skin reactivity (ICDRG criteria): −: negative (no response); ±: doubtful or slight erythema, etc.; +: weak reaction (which is accompanied with no phlyctenule), erythema, papule; ++: severe reaction (which is accompanied with phylctenule), erythema, papule, phlyctenule; +++: strong reaction, bullae reaction; conditions: for average reactivity: 9 patches, 15 examinees; for Number of examinees who exhibited ±, +, or ++ reactivity 1st: 1st patch; for Number of examinees who exhibited ±, +, or ++ reactivity 2nd: 2nd patch; for Number of examinees who exhibited ±, +, or ++ reactivity 3rd: 3rd patch; for Number of examinees who exhibited ±, +, or ++ reactivity 4th: 4th patch; for Number of examinees who exhibited ±, +, or ++ reactivity 5th: 5th patch; for Number of examinees who exhibited ±, +, or ++ reactivity 6th: 6th patch; for Number of examinees who exhibited ±, +, or ++ reactivity 7th: 7th patch; for Number of examinees who exhibited ±, +, or ++ reactivity 8th: 8th patch; for Number of examinees who exhibited ±, +, or ++ reactivity 9th: 9th patch
Experimental: HRIPT (Human repeated insult patch tests) was conducted in order to identify skin accumulated stimulus of quercetin3-O-[3-O″-(E)-p-coumaroyl][β-D-glucopyranosyl-(1→3)-O-α-L-rhamnopyranosyl-(1→6)-O-β-D-glucopyranoside] and quercetin3-O-[3-O″-(E)-p-coumaroyl][α-L-rhamnopyranosyl-(1→6)-O-β-D-glucopyranoside]and to calculate the concentration range that can be used in skin.
Specifically, 15 healthy adult examinees were randomly selected, and test compositions in which the compounds were respectively comprised in an amount of 0.5 wt. %, 1 wt. %, and 3 wt. % (the compositions for skin, comprising an emulsifying agent, a stabilizer, purified water, etc. in addition to the compounds) were dropped in the amount of 20 μl per chamber (IQ chamber, Epitest Ltd, Finland), and patched on the right site of the upper back of the examinees, and then, after 24 hours, the patch was replaced with a new patch. A total of 9 patches were conducted, three times a week for total 3 weeks, in such manner, the skin reactions before and after patch were examined every time, and the skin reactions until 48 hours after removing the final patch were observed, and the average reactivity was observed.
The skin reaction was determined according to the criteria of International Contact Dermatitis Research Group (ICDRG). In the above table, “New Material 31” refers to quercetin3-O-[3-O″-(E)-p-coumaroyl][β-D-glucopyranosyl-(1→3)-O-α-L-rhamnopyranosyl-(1→6)-O-β-D-glucopyranoside], and “New Material 32” refers to quercetin3-O-[3-O″-(E)-p-coumaroyl][α-L-rhamnopyranosyl-(1→6)-O-β-D-glucopyranoside].

mushroom tyrosinase = assay: Inhibition of tyrosinase activity; assay type: biochemical; conditions: L-tyrosine, 37° C., 20 minutes, absorbance 490 nm
Experimental: The effect of New Materials 31 and 32 on inhibiting tyrosinase activity was evaluated.
Specifically, tyrosinase and tyrosine derived from mushroom were obtained from Sigma Chemical. Together with 150 μl of 0.1 M phosphate buffer (pH 6.5), 8 μl of mushroom tyrosinase (2,100 unit/ml) and 0.05 M concentration of L-tyrosine, arbutin and New Materials 31 and 32 were treated at the concentrations of following Table 3, respectively. The tyrosinase activity was evaluated by performing the enzyme reaction at 37° C. for 20 minutes and then measuring absorbance at 490 nm using a microplate reader (Bio-Rad 3550, Richmond, Calif., U.S.A.).

For `C[C@@H]1O[C@@H](OC[C@H]2O[C@@H](Oc3c(-c4ccc(O)c(O)c4)oc4cc(O)cc(O)c4c3=O)[C@H](O)[C@@H](OC(=O)/C=C/c3ccc(O)cc3)[C@@H]2O)[C@H](O)[C@H](O)[C@H]1O` [New Material 32, quercetin3-O-[3-O″-(E)-p-coumaroyl][α-L-rhamnopyranosyl-(1→6)-O-β-D-glucopyranoside]], the average reactivity (healthy adult examinees; 0.5 wt.% in test composition) was 0, the “skin reactivity (ICDRG criteria)” value (healthy adult examinees; 0.5 wt.%, 1 wt.% and 3 wt.%, 9 patches in 3 weeks) was “−” and the “Number of examinees who exhibited ±, +, or ++ reactivity 1st” value (shortened to “Number … or ++ reactivity 1st”) (healthy adult examinees; 0.5 wt.%, line 1 of 3 (±)) was 0 number. For the same molecule, the “Number … or ++ reactivity 1st” value (healthy adult examinees; 0.5 wt.%, line 2 of 3 (+)) was 0 number, the “Number … or ++ reactivity 1st” value (healthy adult examinees; 0.5 wt.%, line 3 of 3 (++)) was 0 number and the “Number of examinees who exhibited ±, +, or ++ reactivity 2nd” value (“Number … or ++ reactivity 2nd” for short) (healthy adult examinees; 0.5 wt.%, line 1 of 3 (±)) was 0 number. The “Number … or ++ reactivity 2nd” value (healthy adult examinees; 0.5 wt.%, line 2 of 3 (+)) was 0 number, the “Number … or ++ reactivity 2nd” value (healthy adult examinees; 0.5 wt.%, line 3 of 3 (++)) was 0 number and the “Number of examinees who exhibited ±, +, or ++ reactivity 3rd” value (“Number … or ++ reactivity 3rd” below) (healthy adult examinees; 0.5 wt.%, line 1 of 3 (±)) was 0 number. For the same molecule, the “Number … or ++ reactivity 3rd” value (healthy adult examinees; 0.5 wt.%, line 2 of 3 (+)) was 0 number, the “Number … or ++ reactivity 3rd” value (healthy adult examinees; 0.5 wt.%, line 3 of 3 (++)) was 0 number and the “Number of examinees who exhibited ±, +, or ++ reactivity 4th” value (shortened to “Number … or ++ reactivity 4th”) (healthy adult examinees; 0.5 wt.%, line 1 of 3 (±)) was 0 number. For the same molecule, the “Number … or ++ reactivity 4th” value (healthy adult examinees; 0.5 wt.%, line 2 of 3 (+)) was 0 number, the “Number … or ++ reactivity 4th” value (healthy adult examinees; 0.5 wt.%, line 3 of 3 (++)) was 0 number and the “Number of examinees who exhibited ±, +, or ++ reactivity 5th” value (“Number … or ++ reactivity 5th” for short) (healthy adult examinees; 0.5 wt.%, line 1 of 3 (±)) was 0 number. The “Number … or ++ reactivity 5th” value (healthy adult examinees; 0.5 wt.%, line 2 of 3 (+)) was 0 number, the “Number … or ++ reactivity 5th” value (healthy adult examinees; 0.5 wt.%, line 3 of 3 (++)) was 0 number and the “Number of examinees who exhibited ±, +, or ++ reactivity 6th” value (“Number … or ++ reactivity 6th” below) (healthy adult examinees; 0.5 wt.%, line 1 of 3 (±)) was 0 number. The “Number … or ++ reactivity 6th” value (healthy adult examinees; 0.5 wt.%, line 2 of 3 (+)) was 0 number, the “Number … or ++ reactivity 6th” value (healthy adult examinees; 0.5 wt.%, line 3 of 3 (++)) was 0 number and the “Number of examinees who exhibited ±, +, or ++ reactivity 7th” value (shortened to “Number … or ++ reactivity 7th”) (healthy adult examinees; 0.5 wt.%, line 1 of 3 (±)) was 0 number. The “Number … or ++ reactivity 7th” value (healthy adult examinees; 0.5 wt.%, line 2 of 3 (+)) was 0 number, the “Number … or ++ reactivity 7th” value (healthy adult examinees; 0.5 wt.%, line 3 of 3 (++)) was 0 number and the “Number of examinees who exhibited ±, +, or ++ reactivity 8th” value (“Number … or ++ reactivity 8th” for short) (healthy adult examinees; 0.5 wt.%, line 1 of 3 (±)) was 0 number. For the same molecule, the “Number … or ++ reactivity 8th” value (healthy adult examinees; 0.5 wt.%, line 2 of 3 (+)) was 0 number, the “Number … or ++ reactivity 8th” value (healthy adult examinees; 0.5 wt.%, line 3 of 3 (++)) was 0 number and the “Number of examinees who exhibited ±, +, or ++ reactivity 9th” value (“Number … or ++ reactivity 9th” below) (healthy adult examinees; 0.5 wt.%, line 1 of 3 (±)) was 0 number. For the same molecule, the “Number … or ++ reactivity 9th” value (healthy adult examinees; 0.5 wt.%, line 2 of 3 (+)) was 0 number, the “Number … or ++ reactivity 9th” value (healthy adult examinees; 0.5 wt.%, line 3 of 3 (++)) was 0 number and the average reactivity (healthy adult examinees; 1 wt.% in test composition) was 0. The “Number … or ++ reactivity 1st” value (healthy adult examinees; 1 wt.%, line 1 of 3 (±)) was 0 number, the “Number … or ++ reactivity 1st” value (healthy adult examinees; 1 wt.%, line 2 of 3 (+)) was 0 number and the “Number … or ++ reactivity 1st” value (healthy adult examinees; 1 wt.%, line 3 of 3 (++)) was 0 number. The “Number … or ++ reactivity 2nd” value (healthy adult examinees; 1 wt.%, line 1 of 3 (±)) was 0 number, the “Number … or ++ reactivity 2nd” value (healthy adult examinees; 1 wt.%, line 2 of 3 (+)) was 0 number and the “Number … or ++ reactivity 2nd” value (healthy adult examinees; 1 wt.%, line 3 of 3 (++)) was 0 number. The “Number … or ++ reactivity 3rd” value (healthy adult examinees; 1 wt.%, line 1 of 3 (±)) was 0 number, the “Number … or ++ reactivity 3rd” value (healthy adult examinees; 1 wt.%, line 2 of 3 (+)) was 0 number and the “Number … or ++ reactivity 3rd” value (healthy adult examinees; 1 wt.%, line 3 of 3 (++)) was 0 number. For the same molecule, the “Number … or ++ reactivity 4th” value (healthy adult examinees; 1 wt.%, line 1 of 3 (±)) was 0 number, the “Number … or ++ reactivity 4th” value (healthy adult examinees; 1 wt.%, line 2 of 3 (+)) was 0 number and the “Number … or ++ reactivity 4th” value (healthy adult examinees; 1 wt.%, line 3 of 3 (++)) was 0 number. The “Number … or ++ reactivity 5th” value (healthy adult examinees; 1 wt.%, line 1 of 3 (±)) was 0 number, the “Number … or ++ reactivity 5th” value (healthy adult examinees; 1 wt.%, line 2 of 3 (+)) was 0 number and the “Number … or ++ reactivity 5th” value (healthy adult examinees; 1 wt.%, line 3 of 3 (++)) was 0 number. The “Number … or ++ reactivity 6th” value (healthy adult examinees; 1 wt.%, line 1 of 3 (±)) was 0 number, the “Number … or ++ reactivity 6th” value (healthy adult examinees; 1 wt.%, line 2 of 3 (+)) was 0 number and the “Number … or ++ reactivity 6th” value (healthy adult examinees; 1 wt.%, line 3 of 3 (++)) was 0 number. For the same molecule, the “Number … or ++ reactivity 7th” value (healthy adult examinees; 1 wt.%, line 1 of 3 (±)) was 0 number, the “Number … or ++ reactivity 7th” value (healthy adult examinees; 1 wt.%, line 2 of 3 (+)) was 0 number and the “Number … or ++ reactivity 7th” value (healthy adult examinees; 1 wt.%, line 3 of 3 (++)) was 0 number. For the same molecule, the “Number … or ++ reactivity 8th” value (healthy adult examinees; 1 wt.%, line 1 of 3 (±)) was 0 number, the “Number … or ++ reactivity 8th” value (healthy adult examinees; 1 wt.%, line 2 of 3 (+)) was 0 number and the “Number … or ++ reactivity 8th” value (healthy adult examinees; 1 wt.%, line 3 of 3 (++)) was 0 number. The “Number … or ++ reactivity 9th” value (healthy adult examinees; 1 wt.%, line 1 of 3 (±)) was 0 number, the “Number … or ++ reactivity 9th” value (healthy adult examinees; 1 wt.%, line 2 of 3 (+)) was 0 number and the “Number … or ++ reactivity 9th” value (healthy adult examinees; 1 wt.%, line 3 of 3 (++)) was 0 number. For the same molecule, the average reactivity (healthy adult examinees; 3 wt.% in test composition) was 0, the “Number … or ++ reactivity 1st” value (healthy adult examinees; 3 wt.%, line 1 of 3 (±)) was 0 number and the “Number … or ++ reactivity 1st” value (healthy adult examinees; 3 wt.%, line 2 of 3 (+)) was 0 number. For the same molecule, the “Number … or ++ reactivity 1st” value (healthy adult examinees; 3 wt.%, line 3 of 3 (++)) was 0 number, the “Number … or ++ reactivity 2nd” value (healthy adult examinees; 3 wt.%, line 1 of 3 (±)) was 0 number and the “Number … or ++ reactivity 2nd” value (healthy adult examinees; 3 wt.%, line 2 of 3 (+)) was 0 number. For the same molecule, the “Number … or ++ reactivity 2nd” value (healthy adult examinees; 3 wt.%, line 3 of 3 (++)) was 0 number, the “Number … or ++ reactivity 3rd” value (healthy adult examinees; 3 wt.%, line 1 of 3 (±)) was 0 number and the “Number … or ++ reactivity 3rd” value (healthy adult examinees; 3 wt.%, line 2 of 3 (+)) was 0 number. The “Number … or ++ reactivity 3rd” value (healthy adult examinees; 3 wt.%, line 3 of 3 (++)) was 0 number, the “Number … or ++ reactivity 4th” value (healthy adult examinees; 3 wt.%, line 1 of 3 (±)) was 0 number and the “Number … or ++ reactivity 4th” value (healthy adult examinees; 3 wt.%, line 2 of 3 (+)) was 0 number. For the same molecule, the “Number … or ++ reactivity 4th” value (healthy adult examinees; 3 wt.%, line 3 of 3 (++)) was 0 number, the “Number … or ++ reactivity 5th” value (healthy adult examinees; 3 wt.%, line 1 of 3 (±)) was 0 number and the “Number … or ++ reactivity 5th” value (healthy adult examinees; 3 wt.%, line 2 of 3 (+)) was 0 number. The “Number … or ++ reactivity 5th” value (healthy adult examinees; 3 wt.%, line 3 of 3 (++)) was 0 number, the “Number … or ++ reactivity 6th” value (healthy adult examinees; 3 wt.%, line 1 of 3 (±)) was 0 number and the “Number … or ++ reactivity 6th” value (healthy adult examinees; 3 wt.%, line 2 of 3 (+)) was 0 number. The “Number … or ++ reactivity 6th” value (healthy adult examinees; 3 wt.%, line 3 of 3 (++)) was 0 number, the “Number … or ++ reactivity 7th” value (healthy adult examinees; 3 wt.%, line 1 of 3 (±)) was 0 number and the “Number … or ++ reactivity 7th” value (healthy adult examinees; 3 wt.%, line 2 of 3 (+)) was 0 number. The “Number … or ++ reactivity 7th” value (healthy adult examinees; 3 wt.%, line 3 of 3 (++)) was 0 number, the “Number … or ++ reactivity 8th” value (healthy adult examinees; 3 wt.%, line 1 of 3 (±)) was 0 number and the “Number … or ++ reactivity 8th” value (healthy adult examinees; 3 wt.%, line 2 of 3 (+)) was 0 number. The “Number … or ++ reactivity 8th” value (healthy adult examinees; 3 wt.%, line 3 of 3 (++)) was 0 number, the “Number … or ++ reactivity 9th” value (healthy adult examinees; 3 wt.%, line 1 of 3 (±)) was 0 number and the “Number … or ++ reactivity 9th” value (healthy adult examinees; 3 wt.%, line 2 of 3 (+)) was 0 number. For the same molecule, the “Number … or ++ reactivity 9th” value (healthy adult examinees; 3 wt.%, line 3 of 3 (++)) was 0 number and the “IC50 inhibiting tyrosinase activity” value (mushroom tyrosinase) was 19 ppm.
